The record followed here is patent US20090061031A1, “Compositions and methods for treating obesity, obesity related disorders and for inhibiting the infectivity of human immunodeficiency virus” (priority 2006, published 2009).

Values joined by “and” are separate entries in the source; they are usually repeats but may differ in a detail not shown here. Equal values may be shown once. Read-outs that look alike come from different tables or passages of the source.

The target in data set [1] is T1, HIV-1 integrase (Human immunodeficiency virus type 1 group M subtype B, UniProt P12497, C1427S/F1332H). The data set can be described thus: HIV-1 integrase strand-transfer (integration) assay. The note with it: U3-GT into pUC18, read-out: Inhibitory Activity EC50 HIV-1 Integrase ST. It is filed as biochemical.
Data set [2] concerns the target T2, HIV-1 gp41 fusion core 6HB (N36 + C34) (Human immunodeficiency virus type 1 group M subtype B, UniProt P04578). The data set can be described thus: Fusion core 6HB formation by circular dichroism spectroscopy. (Circular dichroism is widely used to follow secondary structure.)
Protocol: (§1) Fusion complex formation was carried out by incubating equimolar amounts of HIV-1 gp41 fusion peptides N36 and C34 in PBS (Phosphate Buffer Saline, containing 50 mM sodium phosphate, pH 7.2 and 150 mM NaCl) at 10 or 20 μM each at 37° C. […] Next, an equimolar amount of C34 was added and the samples incubated for 30 min.
CD spectra were recorded on an AVIV 62-DS CD spectrometer, using 1 mm sample cells and a fixed temperature of 4° C. […] Each spectrum is a smoothed average of 10 scans. The bandwidth for each measurement was 1 nm. […] Prior to calculation of the final ellipticity, all spectra were corrected by subtracting the reference spectra of PBS without peptides.
The target in data set [3] is T2, HIV-1 gp41 fusion core 6HB (N36 + C34). The data set can be described thus: Fusion core 6HB formation by native PAGE. Conditions: Inhibitory Activity EC50 Fusion Core Formation 6HB (N36 + C34) N-PAGE, N36 pre-incubated with compound.
Protocol: as §1
N-PAGE was carried out as previously reported [13] with modifications that involve fusion peptide concentration, order of reactions, and time of incubation in fusion complex formation. Tris-glycine gels (18%, Invitrogen, Carlsbad, Calif.) were electrophoresed at 120 V for 2 h, stained with Coomassie Blue and analyzed by densitometry.
Data set [4] has as its target T1, HIV-1 integrase. Kind of data set: HIV-1 integrase disintegration assay. Conditions: read-out: EC50s of inhibition of disintegration product formation. It is filed as biochemical.
The subject of data set [5] is HIV-1. It is filed as cell-based, HIV-1IIIB.
For data set [6], the system named is HIV-1 primary isolates, M and T tropic strains from different clades. Kind of data set: Activity against a panel of HIV-1 primary isolates. Type of data set: cell-based.
A further data set is described as follows: in vitro. Conditions: human.
The subject of data set [7] is HIV-1. Kind of data set: HIV-1 core protein p24 production. Type of data set: cell-based, HIV-1IIIB. Conditions: Human immunodeficiency virus 1, 50% inhibition, read-out: Anti-HIV Activity EC50 P24.
Data set [8] addresses T1, HIV-1 integrase. The data set can be described thus: HIV-1 integrase 3′-processing assay. Type of data set: biochemical. Conditions: 21-mer U3 substrate, read-out: Inhibitory Activity EC50 HIV-1 Integrase 3′-Proc.
Details of data set [9]: species or system C57BL/6 wild-type mice. The note with it: mouse, in vivo, po. The protocol:
To verify that we can administer oleuropein chronically to mice, we added purified oleuropein to drinking water at concentrations of 5 μg/ml, 50 μg/ml, 500 μg/ml, and 5 mg/ml. The water intake of mice averages 5 ml per mouse per day, these dosages of oleuropein result in daily doses of 0.025 mg, 0.25 mg, 2.5 mg, and 25 mg per mouse per day (equivalent to 1, 10, 100, and 1000 mg/kg body weight). 5 male and 5 female C57BL/6 wild-type mice were used for each dose of oleuropein, and housed them in metabolic cages that allow precise determination of water intake and quantitative urine collection.
After seven days to 4 months of chronic steady-state administration, mice blood and urine were collected. 100 μl of serum or urine were extracted with 1 ml ethyl acetate, evaporated to dryness, and reconstituted with 25 μl water and 5 μl was injected for LC-MS analysis.
LC-MS quantitation was performed using an HP1100 equipped with diode array detector and ESI-mass spectrometer. LC was done using a C18 column (4×20 mm), with a 4 minute elution using a gradient of 5-95% CH3CN—H2O containing 1% acetic acid. The diode array recordings were made at 280 nm and 230 nm, and the ESI mass spectrum was made in negative detection mode. Purified oleuropein, and hydroxytyrosol (synthesized by us) were used as standards. The injection volumes were 5 μl. […]

For another data set, the system named is apoE ko mice. The data set can be described thus: Diet-induced atherosclerosis in Western diet-fed apoE ko mouse. It is filed as in vivo. The note with it: 0.25 mg/ml in drinking water (daily dose 1.25 mg), 4 months. The protocol:
To test whether oleuropein reduces diet-induced atherosclerosis, oleuropein was administered to apoE ko mice at various doses from 0.25 mg/ml, 2.5 mg/ml, and 25 mg/ml in the drinking water followed by feeding them with a Western diet containing 42% of calories from fat (Harlan-Teklad). […] The mice were sacrificed, blood and tissues collected. Aortas were dissected from the aortic valve to the iliac bifurcation, opened longitudinally, and pinned to a black wax surface. Atherosclerotic lesions were stained with Oil Red O. The total area of the aorta and the atherosclerotic lesion areas were determined by planimetry using Image Pro software.

The mark [10] stands for this setting: Human immunodeficiency virus 1, syncytial formation, 50% inhibition, read-out: Anti-HIV Activity EC50 Syncytium.

T2 sequence (P04578 546-581): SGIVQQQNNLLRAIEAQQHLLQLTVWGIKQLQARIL
Protocol for in vitro: Uninfected MT2 and H9 cell lines, and HIV-1IIIB chronically infected H9 (H9/HIV-1IIIB) and HIV-1/IIIB virus, were obtained through the AIDS Research and Reference Reagent Program, NIAID, NIH. […] The cell lines were cultured in RPMI medium 1640 containing 100 U/ml penicillin, 100 μg/ml streptomycin, 2 mM L-glutamine, and 10% heat-inactivated fetal calf serum. Viral stocks were prepared and standardized as described [8].
Cytotoxicity was evaluated by the MTT assay [8].

Turning to `OCCc1ccc(O)c(O)c1` [HT, hydroxytyrosol], the EC50 was 43 nM on HIV-1 integrase [1]; 60 nM in data set [2]; ~58 nM and 58 nM in data set [3]; 18 nM at HIV-1 integrase [4]; 61 nM in the data set on HIV-1 [5] (setting [10]); 68 nM in the data set with HIV-1 [7]. In addition, the EC50 at HIV-1 integrase [8] was 54 nM. Moreover, in [6], the “activity against HIV-1 primary isolates” value is “active”. Further, the IC50 (usually the concentration at which inhibition is half-maximal) in the data set “in vitro” was above 10000 nM.

With `C/C=C1/[C@H](O[C@@H]2O[C@H](CO)[C@@H](O)[C@H](O)[C@H]2O)OC=C(C(=O)OC)[C@H]1CC(=O)OCCc1ccc(O)c(O)c1` (single isomer, unassigned) [Ole, oleuropein], the EC50 on HIV-1 integrase [1] is 56 nM; in data set [2], 62 nM; in data set [3], ~66 nM and 66 nM; at HIV-1 integrase [4], 28 nM; with HIV-1 [5] (Human immunodeficiency virus 1, read-out: average EC50 for syncytial formation) it was 55 nM; in the data set on HIV-1 [5] (setting [10]), 55 ± 5 nM. Besides, the EC50 was found to be 73 nM in the data set on HIV-1 [7] and 46 nM at HIV-1 integrase [8]. For the same compound, the tolerability in animals result in [9] is listed as “well tolerated”. Moreover, in the data set with apoE ko mice, the “serum levels of oleuropein” value was “comparable to those in animals fed a diet supplemented with olive oil”. In data set [6], the “activity against HIV-1 primary isolates” value is reported as “active”. In the data set “in vitro”, this compound gave an IC50 above 10000 nM.
